pIC50: −log10 of the molar value. Read-outs that look alike come from different tables or passages of the source.
How the values were obtained:
[1] = tested on: lung tumor-bearing mice (luciferase expressing LLC cells); experiment: Open field test, elevated plus maze and tumor growth in mice with orthotopic LLC lung tumors; assay type: in vivo, C57BL/6 mice
Method: FIGS. 5A-5C depict the effects of CBD on behavior in lung tumor bearing mice. […] D-Luciferin (150 mg/kg) was delivered by IP injection 10 minutes prior to imaging. Vehicle or CBD (25 mg/kg) was delivered by oral gavage every alternate day and Open Field (FIG. 5B) and EPM (FIG. 5C) tests were performed. Significant differences between means were determined by ANOVA with Holm Sidack post hoc test.
Effects of CBD on the behavior of lung tumor-bearing mice: To make a preliminary assessment of the effects of CBD on the behavior of lung tumor-bearing mice, a study was conducted which used the open field test and EPM to determine if behavioral deficiencies observed in FIGS. 4A-4C could be rescued. Lung tumors were initiated in C57BL/6 mice via intratracheal instillation of 5×10^5 luciferase expressing LLC cells (Perkin Elmer) and tumor growth was monitored using the Perkin Elmer In Vivo Imaging System (IVIS). Treatment groups were assigned on day 9 (FIG. 5A) to ensure each group (n=4) contained tumors of approximately the same size based on luminescence readings. CBD (25 mg/kg) or vehicle (2:1:18 parts ethanol:Tween-80:PBS) treatments by oral gavage were started on day 10 and repeated every alternate day, two hours prior to the beginning of behavioral testing. […] This is consistent with previous studies of CBD treatment in naïve mice. […] (FIG. 5B).
This may indicate less interest in the corner zone and, therefore, less anxiety. […] The effects of CBD treatment in lung cancer can be investigated using additional tests to measure pain (cold plate, Von Frey, conflict avoidance) and endurance (treadmill) to discover how CBD dose and combination with cancer therapies can improve these outcomes.

[2] = tested on: H1975 lung cancer cell line; experiment: CellTiter Glo viability assay, drugs alone or combined with CBD; assay type: cell-based; details: for IC50: read-out: IC50 (μM), cell viability reduction
Method: Viability after treatment with each cancer drug was compared with and without CBD (*=p<0.05 Student's t test).
Effects of CBD combination with Standard of Care drugs in lung cancer cells: A study was conducted which screened cannabinoids, including CBD, for their ability to synergize with FDA-approved anti-cancer drugs to reduce the viability of cancer cells in vitro. […] IC50 was calculated using GraphPad Prism (dose-response inhibition), and Combination Index (CI) was calculated using CompuSyn software. […] Because the major driver mutation in this cell line is known (KRAS), the study evaluated potential drug synergy between CBD and the G12D specific KRAS inhibitor MTRX1133.

[3] = tested on: LLC lung cancer cell line; experiment: cells; assay type: cell-based, mouse; details: for IC50: 48 hr, combinations with 10 μM CBD, read-out: IC50 (μM), cell viability reduction
[4] = tested on: LLC flank tumor-bearing mice; experiment: Open field test and elevated plus maze in mice with subcutaneous LLC flank tumors after chemotherapy; assay type: in vivo, C57BL/6 mice
Method: FIGS. 4A-4C depict that the behavior of mice is altered by tumor growth and by chemotherapy indicating increased pain and anxiety. C57BL/6 mice were inoculated with 5×105 LLC1 on right flank on Day 0. Cisplatin or Osimertinib were administered in doses of 10 mg/kg by intraperitoneal injection on the days indicated. DMSO+sterile saline was used as a vehicle control. Behavior was assayed using the open field test and EPM according to the timeline depicted in FIG. 4A. The open field (FIG. 4B) and EPM (FIG. 4C) tests were recorded using AnyMaze software to track animal speed, movement, and location. Significant differences between means were determined by ANOVA with Holm Sidack post hoc test p<0.05.
Alterations in behavior in tumor-bearing mice following chemotherapy treatment: To make a preliminary assessment of cancer and chemotherapy-derived symptoms (anxiety, reduced mobility, and pain) in mice, a study was conducted which used the syngeneic Lewis Lung Carcinoma (LLC) model of subcutaneous flank tumors. C57BL/6 mice were injected with 5×10^5 LLC cells on the right flank. Tumor-bearing mice were treated with Cisplatin, Osimertinib, or vehicle, as outlined in FIGS. 5A-5C. The study performed the open field test (a sensory motor test used to measure general activity level) and the elevated plus maze (EPM) (test for anxiety behavior) on tumor-bearing mice throughout the period of tumor growth and treatment (FIG. 4A). In these tests, reduced physical activity was used an indicator of increased pain, and decreases in both distances traveled and time spent mobile over the tumor growth period were observed. […] Overall, the mice spent very little time in the open arms regardless of time point or treatment group making the measure unreliable. […] One limitation of this model is the contribution of tumor location on the hind flank to decreased mobility. To overcome this limitation, future studies can use genetically engineered models of tumor growth in the lungs.

[5] = 25 mg/kg oral gavage every alternate day
[6] = LLC flank tumor mice, 10 mg/kg intraperitoneal

## C=C(C)[C@@H]1CCC(C)=C[C@H]1c1c(O)cc(CCCCC)cc1O [CBD, Cannabidiol]
[1]; [5]
  Number of entries into the corner zone (open field): trending decrease
  Time mobile in the EPM: significant increases
  Time spent in the center zone (open field): significant increases
  Time the animal's head was within the open center zone (EPM): significant increases
[1]; 25 mg/kg oral gavage every alternate day, initially
  Distance travelled in the open field test: no significant change
[1]; 25 mg/kg oral gavage every alternate day, later as tumor growth progressed
  Time mobile in the open field: significant increases
[1]; CBD alone, 25 mg/kg oral gavage, IVIS luminescence
  Tumor growth: significant reduction in tumor growth using CBD alone was not observed
[2]; Homo sapiens, NCI-H1975, 48 h
  IC50: 19.5 µM
[2]; Homo sapiens, NCI-H1975, read-out: IC50 of CBD alone (FIG. 2 legend)
  pIC50: 4.68
[3]; Mus musculus
  IC50: 19 µM
[3]; Mus musculus, n=3, read-out: IC50 of CBD alone (FIG. 2 legend)
  pIC50: 4.84

## N.N.[Cl][Pt][Cl] [Cisplatin]
[2]; H1975, 48 hr, combinations with 10 μM CBD
  IC50: 28 µM
[3]
  IC50: 3.1 µM
[4]; [6]
  Anxiety compared to vehicle: increased anxiety
  Mobility compared to vehicle: greater reduction in mobility
  Time spent in the open center zone (EPM) compared to vehicle: significantly decreased

## C=CC(=O)Nc1cc(Nc2nccc(-c3cn(C)c4ccccc34)n2)c(OC)cc1N(C)CCN(C)C [Osimertinib]
[2]; Homo sapiens, NCI-H1975, H1975, 48 hr, combinations with 10 μM CBD
  IC50: 3.7 µM
[4]; [6]
  Time spent in the open center zone (EPM) compared to vehicle: significantly decreased
[4]; mouse, in vivo, ip, 10 mg/kg
  Anxiety compared to vehicle: increased anxiety

From patent publication US20240293432A1, “Use of Cannabidiol to Improve Rehabilitation in Lung Cancer” (priority 2023, published 2024)
